Source: article PMC7136483 (Frontiers in Pharmacology, 2020)
Several values for one entry are separate records, joined by “and”; a condition that tells them apart may be missing. Identical values can stand only once. Each block holds one molecule with its values, some of them ahead of it.

Experiments:
[1] = Clinical PK database of six pooled tamoxifen studies: observed minimum steady-state concentrations
[2] = cited from earlier work
CYP2D6 [3] = molecular target: T1, CYP2D6 (Homo sapiens, UniProt P10635); assay: NLME PK model covariate: SSRI (paroxetine/fluoxetine) comedication (CYP2D6 inhibitors); assay type: in vivo; settings: during strong CYP2D6-inhibitor comedication
T1 construct: endogenous in cells; host or cells: breast cancer patients (in vivo, clinical PK data)
T1 sequence (P10635 whole entry): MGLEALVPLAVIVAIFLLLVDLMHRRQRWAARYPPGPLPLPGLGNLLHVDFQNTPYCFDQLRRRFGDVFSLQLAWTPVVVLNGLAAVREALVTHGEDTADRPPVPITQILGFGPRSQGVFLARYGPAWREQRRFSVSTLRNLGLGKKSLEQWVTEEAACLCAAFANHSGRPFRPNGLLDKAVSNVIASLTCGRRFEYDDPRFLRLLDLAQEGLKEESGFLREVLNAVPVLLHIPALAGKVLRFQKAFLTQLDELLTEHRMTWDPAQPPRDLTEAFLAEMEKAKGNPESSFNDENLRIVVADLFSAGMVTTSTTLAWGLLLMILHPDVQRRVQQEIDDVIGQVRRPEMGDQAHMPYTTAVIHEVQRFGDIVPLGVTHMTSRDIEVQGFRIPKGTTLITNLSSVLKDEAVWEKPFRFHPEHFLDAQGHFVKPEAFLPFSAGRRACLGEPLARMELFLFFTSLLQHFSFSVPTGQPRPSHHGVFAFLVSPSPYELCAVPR
Method: (§1) Secondly, a covariate model refinement step was performed, selecting the most appropriate covariate functions for the preselected covariates, with respect to numerical and statistical evaluation criteria. Finally, the refined full covariate model was evaluated based on physiological plausibility of the estimated effect, statistical significance and clinical relevance criteria using advanced model evaluation techniques (Supplementary Material 1, see section “Advanced Model Evaluation Diagnostics”). To explore and quantify the reduction of unexplained variability upon introduction of covariate effects, the statistical model with the four levels of variability was exploited.

[4] = set-up: method as in earlier work; settings: ref Johnson et al., 2004, Kisanga et al., Lim et al., 2005, Mürdter et al., 2011, Gjerde et al., 2012; cited from earlier work
[5] = Joint parent-metabolite NLME PK model of tamoxifen and endoxifen (structural, statistical and age covariate estimates); assay type: in vivo, human
From the text: PK parameters for tamoxifen and endoxifen were simultaneously estimated.
The statistical model aimed to incorporate four levels of variability around the structural model. Thus, and due to the nature of the database, a nested hierarchy of random-effects components was set up comprising interstudy (ISV), interindividual (IIV), interoccasion (IOV), and residual unexplained variability (RUV) (see Supplementary Figure S1). While ISV and IIV characterize random deviations between different studies and patients, respectively, IOV describes the random variability within an individual patient across different occasions. The RUV captures the remaining variability across all observations.
IIV was evaluated on all structural PK parameters and implemented using exponential IIV models (Equation 1). Resulting individual PK parameters were assumed to arise from a log-normal distribution in which the ηik values are normally distributed with mean zero and variance estimate ωk2 .
While 27% of the patients had samples collected on one occasion (study day, i.e., one dosing interval = 1 day) only, 73% of patients in the PK database had samples collected on three to four occasions (i.e., 3–4 days) with rich sampling during one occasion (dosing interval) in studies 3–6.
For the RUV, a log-transformed both sides approach was applied (Equation 3).
Since tamoxifen and endoxifen PK were analyzed simultaneously, separate but correlated RUV terms were estimated.
A study effect was introduced as additional variability term on top of the random individual effect (IIV) (study hierarchically above individual level, see Supplementary Figure S1 and Equation 4) ([Laporte-Simitsidis et al., 2000]),
The covariate model was developed using a full covariate model approach ([Tunblad et al., 2008]; [Ravva et al., 2009]; [Gastonguay, 2011]): first, covariates were pre-selected based on specific criteria and introduced simultaneously into a full covariate model (for details see Supplementary Material 1, see section “Covariate Submodel Development”). Secondly, a covariate model refinement step was performed, selecting the most appropriate covariate functions for the preselected covariates, with respect to numerical and statistical evaluation criteria. Finally, the refined full covariate model was evaluated based on physiological plausibility of the estimated effect, statistical significance and clinical relevance criteria using advanced model evaluation techniques (Supplementary Material 1, see section “Advanced Model Evaluation Diagnostics”). To explore and quantify the reduction of unexplained variability upon introduction of covariate effects, the statistical model with the four levels of variability was exploited.
Furthermore, endoxifen PK parameter values (CL30/F = 5.1 L/h and VENDX/F = 400 L) were informed and used from a clinical study administering endoxifen only ([Ahmad et al., 2010b]).

CYP2D6 [6] = assay: NLME PK model covariate: CYP2D6 activity score on endoxifen formation; assay type: in vivo, human
From the text: To derive a patient’s CYP2D6 phenotype, the available genotype information, i.e., detected genetic polymorphisms (single nucleotide polymorphisms, SNPs, and copy number variants, CNVs), was translated via three steps: (1) From the reported nucleotide variation (wild-type ‘wt’ or altered nucleotide sequence ‘mut’) to a biallelic genotype, e.g., wt/mut: ^∗1/^∗41; (2) from the genotype to the activity score (AS), e.g., ^∗1/^∗41 → 1.5; (3) From the AS to the ‘traditional’ CYP2D6 phenotype category, e.g., 1.5 → normal metabolizer, gNM. […] Thus, each patient in the PK database was assigned a CYP2D6 activity score (seven AS categories from 0 to 3 in intervals of 0.5) and a respective CYP2D6 phenotype [four categories: poor (gPM, AS: 0), intermediate (gIM, AS: 0.5), normal (gNM, AS:1-2), and ultrarapid (gUM, […]) metabolizer; see Figure 1]. The prefix ‘g’ indicates the phenotype prediction from genotype.
as §1
CYP2D6 activity score The CYP2D6 AS is a multichotomous covariate with seven ordered categories from 0 to 3 (step size of 0.5). For each patient in the PK database, an AS was derived from the reported CYP2D6 genotype.
The AS was introduced as ordered categorical covariate applying a fractional change model with four categories representing the ‘traditional’ CYP2D6 phenotype classes investigating two different grouping types for the intermediate (IM) and normal (NM) metaboliser group (depending on whether AS=1 is classified as IM or NM, see Figure 1 in main text), or with six AS categories only grouping AS 2.5 and 3 (Equation 8). To model the CYP2D6 activity scores, fiveseparate categorical covariate effects (for AS subgroups: 0, 0.5, 1, 1.5 and 2.5-3) were estimated while AS=2 was set as reference category (i.e. for a typical patient with AS=2: CL23/F = θRef). An indicator variable XAS,i was coded as 1 for a patient belonging into the respective AS category or 0 otherwise.

[7] = set-up: method as in Ahmad et al., 2010b; settings: fixed in model, ref Ahmad et al., 2010b, cited from earlier work
[8] = 20 mg dose group, across all studies, steady-state
[9] = interindividual variability, final model
[10] = interoccasion variability, final model
[11] = fractional change of endoxifen formation vs AS 2

%CVgeom of Css,min [1, 8]: 84.4%
median Css,min [1, 8]: 10.7 ng/mL
range of Css,min [1, 8]: 0.70 to 45.5 ng/mL
overall risk of subtarget endoxifen concentrations, observed ([1]; observed population of PK database, CSS,min below 5.97 ng/mL): 28.9%
change in endoxifen formation (CYP2D6 [3]): −65%
IIV CL23/F [5, 9]: 47.2 % CV
IIV CL23/F, variance estimate [5, 9]: 0.201
IOV CL23/F, variance estimate [5, 10]: 0.0289
IOV CL23/F ([5]; interoccasion variability, final model (SSRI effect included)): 17.1 % CV
CL23/F (Ref.) ([5]; relative formation of endoxifen, reference patient: CYP2D6 AS 2, 65 years, no rifampicin or SSRI): 0.493 L/h
IIV CL23/F before covariate inclusion ([5]; without CYP2D6 AS and SSRI covariates): 63.3 % CV
IOV CL23/F before considering SSRI effect ([5]; without covariate): 26.4 % CV
fractional decrease from CL23/F reference value (CYP2D6 [6]; AS 1): 32.3%
fractional decrease from CL23/F reference value (CYP2D6 [6]; AS 1.5): 21.1%
CL23/F_AS: 0 (CYP2D6 [6]; [11]): −0.722
CL23/F_AS: 0.5 (CYP2D6 [6]; [11]): −0.510
CL23/F_AS: 1 (CYP2D6 [6]; [11]): −0.323
CL23/F_AS: 1.5 (CYP2D6 [6]; [11]): −0.211
CL23/F_AS: 2.5-3 (CYP2D6 [6]; [11]): 0.533
reduced endoxifen formation efficiency CL23/F (CYP2D6 [6]; intermediate metabolizers (AS: 0.5) vs AS 2): 51.0%
reduced endoxifen formation efficiency CL23/F (CYP2D6 [6]; poor metabolizers (AS: 0) vs AS 2): 72.2%
increased CL23/F (CYP2D6 [6]; ultrarapid metabolizer (AS ≥ 2.5) vs AS 2): 53.3%
SMILES: CC/C(=C(\c1ccc(O)cc1)c1ccc(OCCNC)cc1)c1ccccc1 [endoxifen, 4-hydroxy-N-desmethyl-tamoxifen]
hazard ratio of the endoxifen exposure-response relationship ([2]; ref Madlensky et al. (2011)): 0.71
reduced risk of breast cancer recurrence related to endoxifen threshold concentration ([2]; ref Madlensky et al., 2011, Saladores et al., 2015): 26%
breast cancer patients not reaching proposed target endoxifen concentrations ([2]; tamoxifen standard dosing, ref Madlensky et al., 2011): ~20%
potency relative to parent tamoxifen [4]: 100 fold
CL30/F ([7]; relative clearance of endoxifen): 5.1 L/h and 5.10 fixed L/h
VENDX/F ([7]; relative volume of distribution of endoxifen): 400 L and 400 fixed L

SMILES: CC/C(=C(\c1ccccc1)c1ccc(OCCN(C)C)cc1)c1ccccc1 [tamoxifen, reference compound]
range of Css,min [1, 8]: 3.05 to 448 ng/mL
ka ([5]; absorption rate constant, oral tamoxifen): 1.78 h⁻¹
IIV CL20/F, variance estimate [5, 9]: 0.148
IOV CL20/F, variance estimate [5, 10]: 0.0222
total ISV before covariate introduction ([5]; interstudy variability): 31.2 % CV
total ISV upon covariate introduction ([5]; interstudy variability): 16.1 % CV
tlag ([5]; lag time): 0.389 h
VTAM/F ([5]; relative central volume of distribution, reference patient): 1120 L
CL20/F (Ref.) ([5]; relative clearance of tamoxifen, reference patient: CYP2D6 AS 2, 65 years, no rifampicin or SSRI): 5.77 L/h
IOV CL20/F before implementing rifampicin effect ([5]; without covariate): 24.9 % CV
